Measured values taken from patent publication US20260327214A1, “1,3,4-OXADIAZOLE DERIVATIVE COMPOUNDS AS HISTONE DEACETYLASE 6 INHIBITOR, AND USES THEREOF” (CHONG KUN DANG PHARMACEUTICAL CORP., priority 2022, published 2026).

Legend:
human recombinant HDAC1 = target: T1, human recombinant HDAC1 (Homo sapiens, UniProt Q13547); assay: HDAC1 enzyme activity inhibition test (HDAC Fluorometric Drug Discovery Kit); assay type: biochemical; conditions: 30° C., 60 minutes, 10 μM substrate
T1 construct: purchased Enzo Life Science BML-SE456
T1 sequence (Q13547 whole entry): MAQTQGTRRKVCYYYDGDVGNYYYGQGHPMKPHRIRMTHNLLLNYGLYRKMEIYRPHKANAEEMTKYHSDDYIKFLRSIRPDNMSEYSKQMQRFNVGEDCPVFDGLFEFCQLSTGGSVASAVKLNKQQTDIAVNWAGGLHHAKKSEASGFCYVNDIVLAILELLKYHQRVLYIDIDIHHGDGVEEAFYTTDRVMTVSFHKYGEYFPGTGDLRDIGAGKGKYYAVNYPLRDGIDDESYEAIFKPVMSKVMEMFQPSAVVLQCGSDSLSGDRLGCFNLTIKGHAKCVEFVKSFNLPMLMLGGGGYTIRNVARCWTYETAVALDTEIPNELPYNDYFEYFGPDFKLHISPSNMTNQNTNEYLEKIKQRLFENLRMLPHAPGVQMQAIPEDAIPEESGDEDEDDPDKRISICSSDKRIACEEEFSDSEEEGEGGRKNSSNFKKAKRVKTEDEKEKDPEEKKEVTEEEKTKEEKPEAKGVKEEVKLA
Experimental: (§1) The following experiment was conducted to confirm the HDAC6 selectivity of the compound represented by Chemical Formula I of the present invention through the HDAC1 and HDAC6 enzyme activity inhibition test.
(§2) HDAC enzyme activity was measured using HDAC Fluorometric Drug Discovery Kit (BML-AK511, 516) manufactured by Enzo Life Science. For the HDAC1 enzyme activity test, human recombinant HDAC1 (BML-SE456) was used as an enzyme source and Fluor de Lys-®-″SIRT1 (BNL-KI177) was used as a substrate. The 5-fold diluted compound was dispensed in a 96-well plate, 0.3 μg of enzyme and 10 μM substrate were added to each well and reacted at 30° C. for 60 minutes, and Fluor de Lys® Developer II(BML-KI176) was added and reacted for 30 minutes to complete the reaction. Then, the fluorescence value (Ex 360, Em 460) was measured using a multiplate reader (Flexstation 3, Molecular Device). The HDAC6 enzyme was tested using the same protocol as the HDAC1 enzyme activity test method employing human recombinant HDAC6 (382180) from Calbiochem. For the final result, each […] value was calculated using the GraphPad Prism 4.0 program.

human recombinant HDAC6 = target: T2, human recombinant HDAC6 (Homo sapiens, UniProt Q9UBN7); assay: HDAC6 enzyme activity inhibition test (HDAC Fluorometric Drug Discovery Kit); assay type: biochemical; conditions: for HDAC6 selectivity (fold): HDAC6 over HDAC1; for IC50: human recombinant HDAC6, same protocol as HDAC1
T2 construct: purchased Calbiochem 382180
T2 sequence (Q9UBN7 1-1215): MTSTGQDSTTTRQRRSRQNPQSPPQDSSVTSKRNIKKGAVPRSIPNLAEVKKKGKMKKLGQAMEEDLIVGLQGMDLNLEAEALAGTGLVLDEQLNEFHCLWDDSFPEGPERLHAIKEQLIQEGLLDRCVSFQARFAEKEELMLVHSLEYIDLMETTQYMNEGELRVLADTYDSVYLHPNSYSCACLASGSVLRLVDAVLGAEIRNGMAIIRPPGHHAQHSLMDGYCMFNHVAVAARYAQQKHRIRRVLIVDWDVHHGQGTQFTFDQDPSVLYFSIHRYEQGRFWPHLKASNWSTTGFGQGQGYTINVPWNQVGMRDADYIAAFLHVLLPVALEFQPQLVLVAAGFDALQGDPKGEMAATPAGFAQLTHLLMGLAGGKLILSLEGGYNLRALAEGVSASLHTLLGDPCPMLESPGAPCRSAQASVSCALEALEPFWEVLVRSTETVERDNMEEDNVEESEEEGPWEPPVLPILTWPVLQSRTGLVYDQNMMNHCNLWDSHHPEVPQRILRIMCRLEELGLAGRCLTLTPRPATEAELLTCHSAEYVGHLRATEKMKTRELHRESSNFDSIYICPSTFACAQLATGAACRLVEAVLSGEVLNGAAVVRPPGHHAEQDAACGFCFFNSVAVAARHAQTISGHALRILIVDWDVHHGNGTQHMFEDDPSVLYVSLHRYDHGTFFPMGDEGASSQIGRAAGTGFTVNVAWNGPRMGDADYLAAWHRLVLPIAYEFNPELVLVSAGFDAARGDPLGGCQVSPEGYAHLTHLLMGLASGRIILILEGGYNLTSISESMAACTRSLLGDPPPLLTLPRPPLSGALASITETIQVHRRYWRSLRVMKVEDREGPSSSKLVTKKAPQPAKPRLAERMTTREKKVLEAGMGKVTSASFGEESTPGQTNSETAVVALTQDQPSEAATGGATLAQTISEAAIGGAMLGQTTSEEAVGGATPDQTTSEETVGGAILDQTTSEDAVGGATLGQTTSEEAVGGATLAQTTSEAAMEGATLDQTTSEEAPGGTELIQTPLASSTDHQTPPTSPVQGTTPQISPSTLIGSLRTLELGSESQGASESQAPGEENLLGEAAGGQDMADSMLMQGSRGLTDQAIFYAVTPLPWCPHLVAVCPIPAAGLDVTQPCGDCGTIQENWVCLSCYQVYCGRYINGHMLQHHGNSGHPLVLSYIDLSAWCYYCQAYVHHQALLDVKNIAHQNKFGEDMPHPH
Experimental: as §1, §2

SMILES | IC50 (human recombinant HDAC1) | HDAC6 selectivity (fold) (human recombinant HDAC6) | IC50 (human recombinant HDAC6)
CN1CCN(c2ccc(-c3nn(Cc4ccc(-c5nnc(C(F)F)o5)cn4)c(=O)o3)cc2)CC1 [Compound 21, 3-[[5-[5-(difluoromethyl)-1,3,4-oxadiazol-2-yl]-2-pyridyl]methyl]-5-[4-(4-methylpiperazin-1-yl)phenyl]-1,3,4-oxadiazol-2-one] | > 50000 nM | 446 fold | 112 nM
FC(F)c1nnc(-c2ccc(Cn3nc(-c4ccc(CN5CCCCC5)cc4)oc3=S)nc2)o1 [Compound 94, 3-[[5-[5-(difluoromethyl)-1,3,4-oxadiazol-2-yl]-2-pyridyl]methyl]-5-[4-(1-piperidylmethyl)phenyl]-1,3,4-oxadiazol-2-thione] | > 50000 nM | 1672 fold | 29.9 nM
Fc1cc(-c2nnc(C(F)F)o2)cnc1Cn1nc(-c2ccc(CN3CC[C@@H](F)C3)cc2)oc1=S [Compound 113, 3-[[5-[5-(difluoromethyl)-1,3,4-oxadiazol-2-yl]-3-fluoro-2-pyridyl]methyl]-5-[4-[[(3R)-3-fluoropyrrolidin-1-yl]methyl]phenyl]-1,3,4-oxadiazol-2-thione] | > 50000 nM | 778 fold | 64.3 nM
CC1CC(N2CCC(c3cccc(-c4nn(Cc5ccc(-c6nnc(C(F)F)o6)cn5)c(=O)o4)c3)CC2)C1 (stereo not drawn) [Compound 10, 3-[[5-[5-(difluoromethyl)-1,3,4-oxadiazol-2-yl]-2-pyridyl]methyl]-5-[3-[1-(3-methylcyclobutyl)-4-piperidyl]phenyl]-1,3,4-oxadiazol-2-one] | > 50000 nM | 666 fold | 75.1 nM
O=c1oc(-c2cccc(F)c2)cn1Cc1ccc(-c2nnc(C(F)F)o2)cn1 [Compound 143, 3-((5-(5-(difluoromethyl)-1,3,4-oxadiazol-2-yl)pyridin-2-yl)methyl)-5-(3-fluorophenyl)oxazol-2(3H)-one] | > 50000 nM | 374 fold | 134 nM

Further lines, results first:

IC50 (human recombinant HDAC1) | HDAC6 selectivity (fold) (human recombinant HDAC6) | IC50 (human recombinant HDAC6) | SMILES
> 50000 nM | 890 fold | 56.2 nM | O=c1sc(-c2ccc(CN3CCN(C4CCC4)CC3)cc2)nn1Cc1ccc(-c2nnc(C(F)F)o2)cn1 [Compound 67]
> 50000 nM | 457 fold | 109 nM | CCN(CC)Cc1ccc(-c2nn(Cc3ncc(-c4nnc(C(F)F)o4)cc3F)c(=S)o2)s1 [Compound 129, 5-[5-(diethylaminomethyl)-2-thienyl]-3-[[5-[5-(difluoromethyl)-1,3,4-oxadiazol-2-yl]-3-fluoro-2-pyridyl]methyl]-1,3,4-oxadiazol-2-thione]
> 50000 nM | 487 fold | 103 nM | CN1CCN(c2ccc(-c3nn(Cc4ccc(-c5nnc(C(F)F)o5)cn4)c(=O)o3)c(F)c2)CC1 [Compound 24, 3-[[5-[5-(difluoromethyl)-1,3,4-oxadiazol-2-yl]-2-pyridyl]methyl]-5-[2-fluoro-4-(4-methylpiperazin-1-yl)phenyl]-1,3,4-oxadiazol-2-one]
> 50000 nM | 620 fold | 80.7 nM | CC(C)N1CCN(Cc2cccc(-c3nn(Cc4ccc(-c5nnc(C(F)F)o5)cn4)c(=O)s3)c2)CC1 [Compound 63, 3-[[5-[5-(difluoromethyl)-1,3,4-oxadiazol-2-yl]-2-pyridyl]methyl]-5-[3-[(4-isopropylpiperazin-1-yl)methyl]phenyl]-1,3,4-thiadiazol-2-one]
> 50000 nM | 630 fold | 79.5 nM | CCN(CC)Cc1cccc(-c2nn(Cc3ncc(-c4nnc(C(F)F)o4)cc3F)c(=S)o2)c1 [Compound 120, 5-[3-(diethylaminomethyl)phenyl]-3-[[5-[5-(difluoromethyl)-1,3,4-oxadiazol-2-yl]-3-fluoro-2-pyridyl]methyl]-1,3,4-oxadiazol-2-thione]
